Experimental data published in patent US7034024B1, “Product inhibiting transduction of G heterotrimeric protein signals combined with another anti-cancer agent for therapeutic use in cancer treatment” (Societe de Conseils de Recherches et d'Applications …, priority 1999, dated 2006).

Tested on: Mia-Paca2 cells (human pancreatic cancer cells)
Test: Measurement of cell proliferation in vitro (WST1 colorimetric test, polyhema-coated plates)
Format: cell-based
Parameters: Observed values (living cells): scale not given here
Conditions: for Compound B1 alone (observed value of living cells) / Compound B5 alone (observed value of living cells): 0 μM = 100; for Compound B4 alone (observed value of living cells) / Compound B2 alone (observed value of living cells) / Compound B3 alone (observed value of living cells): 0 nM = 100
Description: The cell line Mia-Paca2 (human pancreatic cancer cells) was acquired from the American Tissue Culture Collection (Rockville, Md., USA).
The Mia-Paca2 cells (1500 cells/wells) are cultured in 96-well plates pre-coated with polyhema (Sigma) which allows only the growth of cells presenting a tumorigenic phenotype.
On day 0, these cells are seeded in 90 μl of Dulbecco's modified Eagle medium (Gibco-Brl, Cergy-Pontoise, France) completed with 10% of foetal calf serum inactivated by heating (Gibco-Brl, Cergy-Pontoise, France), 50000 units/l of penicillin and 50 mg/l streptomycin (Gibco-Brl, Cergy-Pontoise, France), and 2 mM of glutamin (Gibco-Brl, Cergy-Pontoise, France).
The cells were treated with increasing concentrations of two products alone or combined in a matrix, i.e.: on day 1, with the first product for 96 hours and on day 2 with the second product for 72 hours. According to method α, the transduction inhibitor of heterotrimeric G protein signals with which the anti-cancer agent is combined is administered before the latter, then according to method β, it is done so after.
At the end of this period, quantification of cell proliferation is evaluated by a colorimetric test based on the cleavage of the tetrazolium salt WST1 by mitochondrial dehydrogenases in the living cells leading to the formation of formazan (Boehringer Mannheim, Meylan, France). These tests are carried out in duplicate with 4 measurements for each single product and for each combination tested. This allows the number of living cells at the end of each treatment to be determined, i.e. the observed value. The calculated value of the living cells for each treatment corresponds to the multiplication of the observed values of the effects of separate products. These observed and calculated values are compared for each combination. When the observed value of living cells is lower than the calculated value of the living cells, a synergy is considered to exist. When the observed value is equal to the calculated value, a additive effect is considered to exist. When the observed value is greater than the calculated value, an antagonism is considered to exist.

1-(2-(1-((4-cyano)phenylmethyl)imidazol-4-yl)-1-oxoethyl-2,5-dihydro-4-(2-methoxyphenyl)imidazo[1,2c][1,4]benzodiazepine [compound B1]
Compound B1 alone (observed value of living cells) (B1 0.04 μM alone, Table I): 94 ± 2.3 | Compound B1 alone (observed value of living cells) (B1 0.2 μM alone, Table I): 80 ± 4.2 | Compound B1 alone (observed value of living cells) (B1 1 μM alone, Table I): 68 ± 2.3

4-(2-bromophenyl)-1-(2-(1-((4-cyano-3-methoxy)phenylmethyl)-imidazo-5-yl)-1-oxoethyl)-1,2-dihydro-8-fluoro-imidazo[1,2a][1,4]-benzodiazepine [compound B5]
Compound B5 alone (observed value of living cells) (B5 0.2 μM alone, Table V): 86 ± 0.9 | Compound B5 alone (observed value of living cells) (B5 1 μM alone, Table V): 63 ± 2.6

Cn1cncc1C(N)(c1ccc(Cl)cc1)c1ccc2c(c1)c(-c1cccc(Cl)c1)cc(=O)n2C (racemic) [compound B4, (±)-4-(3-chlorophenyl)-6-[(4-chlorophenyl)-amino-(1-methyl-1H-imidazol-5-yl)methyl]-1-methyl-2(1H)quinolinone, reference compound]
Compound B4 alone (observed value of living cells) (B4 40 nM alone, Table IV): 104 ± 2.0 | Compound B4 alone (observed value of living cells) (B4 0.2 μM alone, Table IV): 90 ± 9.0 | Compound B4 alone (observed value of living cells) (B4 1 μM alone, Table IV): 72 ± 3

Cc1ccccc1-c1cn2c(n1)C(CC1CCCCC1)N(C(=O)C(N)CS)CC2 (stereo not shown) [compound A1, 7-(2-amino-1-oxo-3-thiopropyl)-8-(cyclohexylmethyl)-2-(2-methylphenyl)-5,6,7,8-tetrahydroimidazo[1,2a]pyrazine]
Observed values (living cells) (A1 20 μM alone (B1 0 μM), method α, n = 4, Table I): 51 ± 8.9 | Observed values (living cells) (A1 20 μM alone (B2 0 nM), method α, n = 3, Table II): 49 ± 7.7 | Observed values (living cells) (A1 20 μM alone (B3 0 nM), method α, n = 3, Table III): 65 ± 7.3

NC(CS)C(=O)N1CCn2cc(-c3ccccc3)nc2C1CC1CCCCC1 (stereo not shown) [compound A2, 7-(2-amino-1-oxo-3-thiopropyl)-8-(cyclohexylmethyl)-2-phenyl-5,6,7,8-tetrahydroimidazo[1,2a]pyrazine]
Observed values (living cells) (A2 20 μM alone (B4 0 nM), method β, n = 2, Table IV): 42 ± 11.0 | Observed values (living cells) (A2 20 μM alone (B5 0 μM), method β, n = 3, Table V): 44 ± 6.4

CC(=O)O[C@H]1C(=O)[C@@]2(C)[C@H]([C@H](OC(=O)c3ccccc3)[C@]3(O)C[C@H](OC(=O)[C@H](O)[C@@H](NC(=O)c4ccccc4)c4ccccc4)C(C)=C1C3(C)C)[C@]1(OC(C)=O)CO[C@@H]1C[C@@H]2O [compound B2, taxol, reference compound]
Compound B2 alone (observed value of living cells) (B2 0.8 nM alone, Table II): 100 ± 5.8 | Compound B2 alone (observed value of living cells) (B2 4 nM alone, Table II): 100 ± 0.3 | Compound B2 alone (observed value of living cells) (B2 20 nM alone, Table II): 60 ± 10.6

Nc1ccn([C@@H]2O[C@H](CO)[C@@H](O)C2(F)F)c(=O)n1 [compound B3, gemcitabine, reference compound]
Compound B3 alone (observed value of living cells) (B3 4 nM alone, Table III): 95 ± 9.8 | Compound B3 alone (observed value of living cells) (B3 20 nM alone, Table III): 72 ± 11.5 | Compound B3 alone (observed value of living cells) (B3 100 nM alone, Table III): 62 ± 1.9
